We go through two compounds from ChEMBL document CHEMBL1137559, “Rational design of 5'-thiourea-substituted alpha-thymidine analogues as thymidine monophosphate kinase inhibitors capable of inhibiting mycobacterial growth” (J Med Chem, 2007).

The species named for assay [1] is Homo sapiens. The assay is described as follows: Inhibition of human TMPK expressed in Escherichia coli at 1 mM by spectrophotometric assay.
The species named for assay [2] is Homo sapiens. The assay can be described thus: Inhibition of human TMPK expressed in Escherichia coli by spectrophotometric assay.

For orientation: Km means the substrate concentration at which the rate is half of its maximum.

Activity calls are given as the source filed them. The rule behind the calls is not given here.

Turning to `Cc1cn([C@@H]2C[C@@H](CNC(=O)NC[C@H]3C[C@H](n4cc(C)c(=O)[nH]c4=O)O[C@@H]3CO)[C@H](CO)O2)c(=O)[nH]c1=O`, the result in assay [1] was inactive. Take `Cc1cn([C@H]2C[C@H](O)[C@@H](COP(=O)(O)O)O2)c(=O)[nH]c1=O`: the Km in assay [2] came to 5 µM.
